Assay results as given in PMC11748363, “Antimicrobial and Antiproliferative Properties of 2‐Phenyl‐N‐(Pyridin‐2‐yl)acetamides” (Chemical Biology & Drug Design, 2025).
pIC50: −log10 of the molar value. Values after ≈ are worked out from the molar mass of the structure shown. Where two headings read alike, the source gives them in different places.

Assays:
[1] = test system: Enterococcus faecalis CCM 4224, ATCC 29212; assay: Antibacterial microdilution broth MIC, EF; type: cell-based
[2] = test system: Candida krusei CCM 8271, ATCC 6258; assay: Antifungal microdilution broth MIC, CK; details: Pichia kudriavzevii
[3] = test system: Escherichia coli CCM 3954, ATCC 25922; assay: Antibacterial microdilution broth MIC, EC; type: cell-based
[4] = test system: Mycobacterium tuberculosis H37Ra; assay: Antimycobacterial microdilution broth MIC (resazurin), Mtb H37Ra; type: cell-based; details: for MIC: Mycobacterium tuberculosis, H37RA, read-out: MIC Mtb H37Ra
[5] = buffer, 3 h, 1 µM, pH 7.4
Protocol: HPLC-MS stability determination in PBS (pH 7.4)
Briefly, compounds were dissolved in DMSO to produce stock sample solutions.
NaOH. The concentration of tested compounds was set at 1 µM.
After that, 150 µL of supernatant was
transferred to the vial and analyzed by LC-MS.
3000 RS coupled with a Q Exactive Plus orbitrap mass spectrometer to obtain the areas (Thermo Fisher
Scientific, Bremen, Germany). Reverse-phase C18 column Kinetex EVO (Phenomenex, Torrance, CA,
USA) was used as a stationary phase, and purified water with 0.1% formic acid (mobile phase A) and
LC-MS grade acetonitrile with 0.1% formic acid (mobile phase B) were used as the mobile phases.
Gradient elution was used to determine purities and mass spectra. The method started with 5% B for
0.3 min, then the gradient switched to 100% B in the third min, remained at 100% B for 0.7 min and
then went back to 5% B with equilibration for 3.5 min. The total run time of the method was 7.5 min.
The column temperature was kept constant at 27 °C, the flow of the mobile phase was 0.5 mL/min,
and the injection volume was 1 µL.

HK‐2 cell line = assay: Cytotoxicity CellTiter 96, HK-2 normal cell line; type: cell-based; details: Homo sapiens, 24 h incubation
Protocol: The cytotoxicity of final compounds was determined in human hepatocellular carcinoma cell line HepG2. Additional testing of selected compounds was performed on human epithelial kidney cancer cell line A498, human prostate cancer cell line PC‐3, human glioblastoma cell line U‐87 MG, and normal human proximal tubule cell line HK‐2.
1.4. Cytotoxicity determination […]
For subculturing, the cells were harvested after trypsin/EDTA (Sigma–Aldrich) treatment at 37 °C. To evaluate cytotoxicity, the cells treated with the tested substances were used as experimental groups whereas untreated HepG2 cells served as controls. The cells were seeded in density 10,000 cells per well in a 96 well plate. The next day the cells were treated with each of the tested substances dissolved in DMSO. The tested substances were […]
in triplicates according to their solubility. Simultaneously, the controls representing 100% cell viability, 0% cell viability (the cells treated with 10% DMSO), no cell control and vehiculum controls were also prepared in triplicates. After 24 h incubation in a humidified atmosphere containing 5% CO2 at […], the reagent from the kit CellTiter 96 AQueous One Solution Cell Proliferation Assay (CellTiter 96; PROMEGA, Fitchburg, USA) was added. After 2h incubation at 37 °C, absorbance of samples was recorded at 490 nm (TECAN, Infinita M200, Austria). A standard toxicological parameter IC50 was calculated by nonlinear regression from a semilogarithmic plot of incubation concentration versus percentage of absorbance relative to untre ated controls using GraphPad Prism 8 software.
Human epithelial kidney carcinoma A498 cell line, obtained from American Type Culture Collection (ATCC, Manassas, VA, USA, catalogue No.: HTB -44), was cultured in RPMI medium, Human normal kidney proximal tubule HK-2 cell line obtained from ATCC (ATCC, Manassas, VA, USA, catalogue No.:
CRL-2190) was cultured in DMEM High Glucose medium, Human prostate adenocarcinoma PC-3 cell line, obtained from ATCC (Manassas, VA, USA, catalogue No.: 90112714), was cultured in a Kaighn's Modification of Ham's F-12 Medium and human glioblastoma astrocytoma U-87 MG cell line, obtained from ECACC (ECACC, Salisbury, UK, catalogue No.: 89081402) was cultured in DMEM High Glucose medium. All cultures were supplemented with 10% fetal bovine serum, 1% non-essential amino acids (A498, HK-2 and U-87 MG), 1% sodium pyruvate (A498, HK-2 and U-87 MG) and 2 mM L-glutamine. […]
Simultaneously, the controls representing 100% cell viability, 0% cell viability (the cells treated with 10% DMSO), no cell control and vehiculum controls were also prepared in triplicates. […] Eventually, a colorimetric assay reagent CellTiter 96 AQueous One Solution Cell Proliferation Assay was added, and absorption was measured.

HepG2 cell line = assay: Cytotoxicity CellTiter 96, HepG2; type: cell-based, human; details: 24 h incubation, ^c compound precipitated in the testing medium, ^d over the limit of tested concentrations

Compound	MIC ([1]; 24 h, read-out: MIC EF 24h) [µM]	MIC ([1]; 48 h, read-out: MIC EF 48h) [µM]	MIC ([2]; 24 h, read-out: MIC CK 24h) [µM]	MIC ([2]; 48 h, read-out: MIC CK 48h) [µM]	MIC ([3]; 24 h, read-out: MIC EC 24h) [µM]	MIC ([3]; 48 h, read-out: MIC EC 48h) [µM]	MIC ([4]; Calculated from MIC (μg/mL)) [µM]	MIC [4] [µg/mL]	SI (selectivity index) ([4]; SI = HepG2 IC50 (μM)/MIC MtbH37Ra (μM), calculated for compounds with MIC ≤ 31.25 μg/mL)	concentration remaining (hydrolytic stability) [5] [%]	pIC50 (HK‐2 cell line)	pIC50 (HepG2 cell line)	pIC50 (HepG2 cell line; Homo sapiens, HepG2, 24 h)
COc1ccc(CC(=O)Nc2cccc(Cl)n2)cc1 [Compound 12, 2-(4-methoxyphenyl)-N-(6-chloropyridin-2-yl)acetamide]	500 (≈ 138 µg/mL)	500 (≈ 138 µg/mL)	> 500	> 500	> 500	> 500	56.3	15.6	9.2	≥ 90	< 3.60	3.29	< 3.30
O=C(Cc1cccc(Cl)c1)Nc1ccc(Cl)cn1 [Compound 17, 2-(3-chlorophenyl)-N-(5-chloropyridin-2-yl)acetamide]	> 500	> 500	> 500	> 500	> 500	> 500	445	125	–	–	3.86	–	3.95
O=C(Cc1ccccc1C(F)(F)F)Nc1cccc(Cl)n1 [Compound 24]	> 500	> 500	> 500	> 500	> 500	> 500	> 1590	> 500	–	≥ 90	3.61	–	4.19
O=C(Cc1cccc(C(F)(F)F)c1)Nc1ccc(Cl)cn1 [Compound 26]	> 500	> 500	> 500	> 500	> 500	> 500	> 1590	> 500	–	–	4.52	–	4.28
